This is an account of results in US6392049B1, “Process for preparing 2,4-dihydroxypyridine and 2,4-dihydroxy-3-nitropyridine” (Aventis Pharmaceuticals Inc., priority 1996, dated 2002).

The EC50 is the concentration giving half of the maximal effect.

One assay concerns swine coronary arteries. Briefly: In vitro vasorelaxation in isolated swine coronary arteries. Type of assay: cell-based. As for the experimental part: Swine coronary arteries are obtained from a local slaughter house, dissected carefully and cleaned of fat, blood and adhering tissue. Rings approximately 2-3 mm wide are cut and transferred to water-jacketed tissue baths (10 mL) filled with warm (37° C.), oxygenated (O2/CO2:95%/5%) Krebs-Henseleit buffer and mounted on L-shaped hooks between stainless steel rods and a force transducer. […] PGF2a, before being exposed to 3 μM PGF2a.

The target of the next assay is T1, A1 receptor (Rattus norvegicus, UniProt P25099).
T1 construct: using a membrane preparation of whole rat brain; from tissue; host or cells: whole rat brain membranes
T1 sequence (P25099 1-326): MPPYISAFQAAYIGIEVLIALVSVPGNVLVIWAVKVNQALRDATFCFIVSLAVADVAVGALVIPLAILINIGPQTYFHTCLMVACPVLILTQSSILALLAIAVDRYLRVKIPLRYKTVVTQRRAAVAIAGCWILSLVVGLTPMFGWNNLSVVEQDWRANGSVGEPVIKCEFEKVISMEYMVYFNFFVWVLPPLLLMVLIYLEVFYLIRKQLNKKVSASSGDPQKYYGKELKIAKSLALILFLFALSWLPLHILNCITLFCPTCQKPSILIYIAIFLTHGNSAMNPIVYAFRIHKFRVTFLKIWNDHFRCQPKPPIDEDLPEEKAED
Briefly: A1 adenosine receptor binding, displacement of 3H-CHA, whole rat brain membranes. As to conditions: 3H-CHA displacement, 25° C., 60 minutes. The protocol:
Non-specific binding is assessed in the presence of 1 mM theophylline.
(§1) The assays are run in glass test tubes in duplicate at 25° C. Once the membranes are added, the tubes are vortexed and incubated at 25° C. for 60 minutes (A1 assay) or 90 minutes (A2 assay) on a rotary shaker. The assay tubes are vortexed halfway through the incubation and again near the end. The assays are terminated by rapid filtration through 2.4 cm GF/B filters using a Brandel Cell Harvestor. The test tubes are washed three times with cold 50 mM tris-HCl (pH 7.7 or 7.4), with filtration being completed within 15 seconds. The damp filter circles are placed in glass scintillation vials filled with 10 ml of Aquasol II (New England Nuclear). The vials are allowed to shake overnight on a rotary shaker and are placed into a liquid scintillation analyzer for two minute counts. IC50 values for receptor binding, i.e. the concentration at which a compound of Formula I displaced the radiolabeled standard, are obtained using a curve-fitting computer program (RS/1, Bolt, Beranek and Newman, Boston, Mass.).

In the next assay the target is T2, A2 receptor (Rattus norvegicus, UniProt P30543).
T2 construct: using membranes from rat brain striatum; from tissue; host or cells: rat brain striatum membranes
T2 sequence (P30543 whole entry): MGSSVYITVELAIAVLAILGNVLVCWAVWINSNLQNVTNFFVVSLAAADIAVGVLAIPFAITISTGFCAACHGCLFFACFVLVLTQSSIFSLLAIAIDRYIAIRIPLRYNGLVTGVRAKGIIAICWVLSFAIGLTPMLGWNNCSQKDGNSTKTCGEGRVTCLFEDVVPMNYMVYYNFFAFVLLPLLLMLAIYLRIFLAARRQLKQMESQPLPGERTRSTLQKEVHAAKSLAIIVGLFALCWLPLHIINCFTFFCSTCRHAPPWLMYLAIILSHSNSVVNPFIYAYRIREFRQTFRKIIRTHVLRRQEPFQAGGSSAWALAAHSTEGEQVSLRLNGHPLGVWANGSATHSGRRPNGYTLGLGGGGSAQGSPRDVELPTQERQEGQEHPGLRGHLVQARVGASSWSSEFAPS
Briefly: A2 adenosine receptor binding, displacement of 3H-CGS 21680, rat brain striatum membranes. As to conditions: 3H-CGS 21680 displacement, rat brain striatum membranes, 25° C., 90 minutes; read-out: Adenosine Receptor Binding Activity/IC50 (nM) A2. As for the experimental part:
Non-specific binding is assessed in the presence of 20 μm 2-chloroadenosine.
as §1

Assay [1] relates to normotensive anesthetized rat. Briefly: Mean arterial blood pressure and heart rate in normotensive anesthetized rat. Type of assay: in vivo. As to conditions: for Anesthetized Rat HR/ED25: intravenous dose lowering heart rate by 25%; for Anesthetized Rat MAP/ED25: intravenous dose lowering mean arterial pressure by 25%. As for the experimental part: Normotensive rats are anesthetized with sodium pentobarbital (50 mg/kg, i.p.) and placed on a heated surgical table. Cannulas are inserted into the femoral artery and veined to allow the measurement of arterial pressure and to facilitate the intravenous administration of test compounds. The animals are allowed to equilibrate for 10 minutes after surgery. Mean arterial pressure is continuously measured and recorded and heart rate is monitored using the arterial pressure pulse to trigger a cardiotachometer. After baseline parameters are established and recorded, increasing doses (1, 3, 10, 30, 100, 300 and 1000 μg/kg) of the compound of Formula I to be tested are administered intravenously. Maximal changes in the cardiovascular parameters are observed after each dose of the adenosine agonist. Only one compound is administered per rat.

The next assay concerns rat adipocytes. The assay can be described thus: Antilipolytic activity in rat adipocytes (in vitro lipolysis assay, glycerol production). The class given is cell-based. The conditions noted are these: Adipocyte, read-out: EC50 (50% inhibition of glycerol production). The protocol: Adipose tissue is removed from anesthetized rats and rinsed twice in incubation medium (2.09 g sodium bicarbonate and 0.04 g EDTA, disodium salt, in 1 L Krebs buffer). Each rat (300-350g) yields approximately 4 ml of adipose tissue. The adipose tissue (35 mL) is cut into small pieces with scissors and washed with incubation medium (50 mL). The mixture is poured into the barrel of a 50 mL syringe to which is attached a short piece of clamped tubing instead of a needle. The aqueous phase is allowed to drain. A second wash with incubation medium is passed through the syringe. The tissue is added to 50 mL of collagenase solution (collagenase (90 mg), bovine serum albumin (BSA) (500 mg), and 0.1 M calcium chloride solution (1 mL), in incubation medium (50 mL)) in a 1 L bottle. The mixture is shaken in an environmental at 37 ° C. for about 60 minutes under an atmosphere of 95% oxygen/5% carbon dioxide to effect digestion of the tissue. The dispersed cells are poured through 2 layers of cheese cloth into a 100 mL plastic beaker. The undigested clumps in the cloth are rinsed once with incubation medium (20 mL). The cells in the beaker are centrifuged in 2 plastic tubes for 30 seconds at room temperature at 300 rpm. The aqueous phase is aspirated from beneath the loosely packed layer of floating fat cells and discarded. The adipocytes are gently poured into a 250 mL plastic beaker containing 100 mL of rinse solution (1 g BSA per 100 mL incubation medium). After gentle stirring the centrifugation step is repeated. Another wash with rinse solution follows. The cells are pooled and their volume is estimated with a graduated cylinder. The adipocytes are diluted in twice their volume of assay buffer (incubation medium (120 mL), BSA (1.2 g), pyruvic acid (13 mg)).
The assay is performed in 20 mL plastic scintillation vials and the total assay volume is 4.2 ml. Assay buffer (2.5 mL), diluted adipocytes (1.5 mL), and a solution of the compound to be tested (12.3 μL) adenosine agonist (12.3 μL; varying concentration) is incubated in the environmental shaker for 15 minutes, then the reaction is started with norepinephrine solution (41.2 μL) (10 nM, in a carrier solution containing water (100 mL), BSA (4 mg), and 0.1 M EDTA (20 μL))and adenosine deaminase (1 μg/ml, 41.2 μL). After sixty minutes in the shaker the reaction is terminated by putting the vials on ice. […] The hard lipid layer is removed by aspiration and the aqueous layer is assayed for glycerol (400 μL of sample). The positive control is done in the absence of any adenosine agonist, substituting water in place of the solution to be tested.

The mark [2] stands for this setting: 50% reduction in tension of rings contracted with 3 μM PGF2a, read-out: Vasorelaxation in Swine Coronary Artery/IC50.
[3] abbreviates: Sus scrofa, read-out: Vasorelaxation in Swine Coronary Artery/IC50 (μM).

Like-named read-outs stand apart in the source and are kept apart here. Bounds are passed on as bounds.

As for `OC[C@H]1O[C@@H](n2cnc3c(NCCNc4nc5ccccc5s4)ncnc32)[C@H](O)[C@@H]1O` [Example 9, N^6-[2-(2′-aminobenzothia-zolyl)ethyl]adenosine], the IC50 in the assay with swine coronary arteries (setting [2]) is 11.9 µM; at A1 receptor, 4 nM; on A2 receptor, 1000 nM. Moreover, the “Anesthetized Rat HR/ED25” value in assay [1] turned out to be 4 µg/kg. Moreover, the “Anesthetized Rat MAP/ED25” value in assay [1] came out at 5 µg/kg.

Regarding `CCNC(=O)[C@H]1C[C@@H](n2cnc3c(NCCc4scnc4C)ncnc32)[C@H](O)[C@@H]1O` (relative stereo) [Example 24, (±)-N^6-[2-(4″-methyl-5″-thiazolyl)ethyl]carbocydic adenosine-5′-N-ethyl carboxamide], the IC50 on A1 receptor was greater than 1000 nM. In addition, the IC50 at A2 receptor is greater than 1000 nM. In addition, in assay [1], the “Anesthetized Rat HR/ED25” value was greater than 10 µg/kg and the “Anesthetized Rat MAP/ED25” value amounted to 6 µg/kg.

With `C[C@H](Cc1cc2ccccc2s1)Nc1ncnc2c1ncn2[C@@H]1O[C@H](CO)[C@@H](O)[C@H]1O` [Example 15, N^6-[(R)-1-methyl-2-(2′benzo-[b]-thiophenyl)ethyl]adenosine], the IC50 with swine coronary arteries (setting [3]) came to 2.45 µM; on A1 receptor it was 4.07 nM. Moreover, the “Anesthetized Rat HR/ED25” value in assay [1] was determined as 1.4 µg/kg. Besides, in assay [1], the “Anesthetized Rat MAP/ED25” value was determined as 1.5 µg/kg.

Regarding `OC[C@H]1O[C@@H](n2cnc3c(NCCc4nccs4)ncnc32)[C@H](O)[C@@H]1O` [Example 13, N^6-[2-(2′-thiazolyl)ethyl]-adenosine], the IC50 is 0.24 µM in the assay with swine coronary arteries (setting [2]), 41 nM on A1 receptor and 191 nM on A2 receptor. The “Anesthetized Rat HR/ED25” value in assay [1] was greater than 10 µg/kg. Moreover, the “Anesthetized Rat MAP/ED25” value in assay [1] is 3 µg/kg.

Take `CO[C@@H]1[C@H](O)[C@@H](CO)O[C@H]1n1cnc2c(N[C@H](C)Cc3ccc(Cl)s3)ncnc21` [Example 48, N^6-[2-(5-chloro-2-thienyl)-(1R)-1-methylethyl]-2′-O-methyladenosine]: the IC50 is 8.35 nM on A1 receptor and 1440 nM at A2 receptor. In addition, the EC50 in the assay with rat adipocytes (rat adipocytes, norepinephrine-stimulated) came out at 1.86 nM.

For `Cc1ncsc1CCNc1ncnc2c1ncn2[C@@H]1O[C@H](CO)[C@@H](O)[C@H]1O` [Example 12, N^6-[2-(4′-methylthiazol-5′-yl)-ethyl]adenosine], the figures for the IC50 in the assay on swine coronary arteries (setting [2]), on A1 receptor and at A2 receptor were 0.5 µM, 23 nM and 224 nM, respectively. In assay [1], the “Anesthetized Rat HR/ED25” value came to 17 µg/kg. For the same compound, in assay [1], the “Anesthetized Rat MAP/ED25” value was determined as 4 µg/kg.

In the case of `CCNC(=O)[C@H]1O[C@@H](n2cnc3c(N)ncnc32)[C@H](O)[C@@H]1O` [NECA, N-ethylcarboxamido-adenosine], the EC50 with rat adipocytes (Rattus norvegicus) came out at 2.5 nM.

With `CCNC(=O)[C@H]1O[C@@H](n2cnc3c(NCCNc4nc5ccccc5s4)ncnc32)[C@H](O)[C@@H]1O` [Example 23], the IC50 in the assay on swine coronary arteries (setting [2]) came out at 4.4 µM; on A1 receptor it was 0.32 nM; at A2 receptor it was 891 nM. For the same compound, the “Anesthetized Rat HR/ED25” value in assay [1] was 7 µg/kg. Further, the “Anesthetized Rat MAP/ED25” value in assay [1] is 6 µg/kg.

As for `OC[C@H]1O[C@@H](n2cnc3c(N[C@@H]4CC=CC[C@H]4c4ccsc4)ncnc32)[C@H](O)[C@@H]1O` (relative stereo) [Example 8, N^6-[trans-2-(thiophen-3-yl)-cyclohex-4-en-1-yl]adenosine], the IC50 was found to be 5 nM at A1 receptor and 138 nM at A2 receptor. Moreover, the “Anesthetized Rat HR/ED25” value in assay [1] is 23 µg/kg. Moreover, in assay [1], the “Anesthetized Rat MAP/ED25” value is 10 µg/kg.

In the case of `Cc1csc(CNc2ncnc3c2ncn3[C@@H]2O[C@H](CO)[C@@H](O)[C@H]2O)n1` [Example 18, N^6-[2-(4′-methyl-2′-thiazolyl)-methyl]adenosine], the IC50 stood at 0.46 µM in the assay on swine coronary arteries (setting [2]), 166 nM at A1 receptor and 52 nM on A2 receptor. Besides, the “Anesthetized Rat HR/ED25” value in assay [1] was greater than 10 µg/kg. Moreover, in assay [1], the “Anesthetized Rat MAP/ED25” value was determined as 2 µg/kg.

As to `CCNC(=O)[C@H]1C[C@@H](n2cnc3c(NCCc4cccs4)ccnc32)[C@H](O)[C@@H]1O` (racemic) [Example 30, (±)-N6-[1-(thiopheny-2-yl)ethan-2-yl]-N′-1-deazaaristeromycin-5′-N-ethyl carboxamide], the figures for the IC50 in the assay on swine coronary arteries (setting [3]), at A1 receptor and on A2 receptor were 12.1 µM, 562 nM and greater than 1000 nM, respectively. Moreover, in assay [1], the “Anesthetized Rat HR/ED25” value is greater than 10 µg/kg. Also, the “Anesthetized Rat MAP/ED25” value in assay [1] was determined as 6 µg/kg.

Turning to `CCNC(=O)[C@H]1O[C@@H](n2cnc3c(NC4CC=CCC4c4cccs4)ncnc32)[C@H](O)[C@@H]1O` (single isomer, unassigned) [Example 22, N^6-[trans-2-(thiophen-2-yl)-cyclohex-4-en-1-yl]adenosine-5-N-ethyl carboxamide], the IC50 with swine coronary arteries (setting [3]) was 0.1 µM; at A1 receptor, 2.69 nM; at A2 receptor, 29.5 nM.

In the case of `OC[C@H]1O[C@@H](n2cnc3c(N[C@@H]4CCCC[C@H]4c4cccs4)ncnc32)[C@H](O)[C@@H]1O` (relative stereo) [Example 7, N^6-[trans-2-(thiophen-2-yl)-cyclohex-1-yl]adenosine], the IC50 turned out to be 4 µM with swine coronary arteries (setting [3]), 3.5 nM at A1 receptor and 28 nM at A2 receptor. The “Anesthetized Rat HR/ED25” value in assay [1] was found to be 18 µg/kg. Besides, the “Anesthetized Rat MAP/ED25” value in assay [1] turned out to be 6 µg/kg.

In the case of `CO[C@@H]1[C@H](O)[C@@H](CO)O[C@H]1n1cnc2c(N[C@H](C)Cc3sccc3Cl)ncnc21` [Example 47, N^6-[2-(3-chloro-2-thienyl)-(1R)-1-methylethyl]-2′-O-methyladenosine], the values for the IC50 in the assay with swine coronary arteries (setting [3]), on A1 receptor and at A2 receptor were 5.7 µM, 23 nM and 2820 nM, respectively.

Take `CCNC(=O)C1CC(n2cnc3c(NCCc4nccs4)ncnc32)C(O)C1O` (racemic) [Example 25, (±)-N^6-[2-(2″-thiazolyl)ethyl]-carbocyclic adenosine-5′-N-ethyl carboxamide]: the IC50 came to 0.64 µM in the assay with swine coronary arteries (setting [3]), 1260 nM at A1 receptor and 355 nM on A2 receptor.
